Test results reported in ChEMBL document CHEMBL1201862, “PubChem BioAssay data set” (2004).
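Assay format: 96-well plates, 48-hour exposure. Abbreviation: GI50, concentration required for 50% inhibition of growth.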 Calls of active or inactive are those of the source. Rule as the data show it: active = GI50 up to about 1.1 µM and inactive = higher.

Legend:
Assay in all cases: DTP human tumour cell line panel, 48 h
SK-MEL-5 = system: SK-MEL-5
UACC-257 = system: UACC-257
A498 = system: A498
SK-MEL-28 = system: SK-MEL-28
SNB-75 = system: SNB-75
CCRF-CEM = system: CCRF-CEM
NCI-H226 = system: NCI-H226
SK-OV-3 = system: SK-OV-3
OVCAR-5 = system: OVCAR-5
TK-10 = system: TK-10
HT-29 = system: HT-29
HOP-62 = system: HOP-62
A549 = system: A549
M14 = system: M14
U-251 = system: U-251
K562 = system: K562
NCI-H460 = system: NCI-H460
HCT-15 = system: HCT-15

SMILES	GI50 (SK-MEL-5)	GI50 (UACC-257)	GI50 (A498)	GI50 (SK-MEL-28)	GI50 (SNB-75)	GI50 (CCRF-CEM)	GI50 (NCI-H226)	GI50 (SK-OV-3)	GI50 (OVCAR-5)	GI50 (TK-10)	GI50 (HT-29)	GI50 (HOP-62)	GI50 (A549)	GI50 (M14)	GI50 (U-251)	GI50 (K562)	GI50 (NCI-H460)	GI50 (HCT-15)
CCCCCCCCCCCCCCCC(=O)OCC1OC(n2cc(F)c(=O)[nH]c2=O)C(N)C(O)C1O (centres undefined)	18.1 µM (inactive)	20.2 µM (inactive)	25.9 µM (inactive)	16.9 µM (inactive)	19.2 µM (inactive)	16 µM (inactive)	17.5 µM (inactive)	22.4 µM (inactive)	27 µM (inactive)	21.9 µM (inactive)	20.6 µM (inactive)	19.7 µM (inactive)	19 µM (inactive)	17.8 µM (inactive)	18.5 µM (inactive)	16.5 µM (inactive)		
O=C(Nc1cccc(C(F)(F)F)c1)C(=O)C1NC(=S)NC1=O (centres undefined)	> 100 µM (inactive)	31.6 µM (inactive)	> 100 µM (inactive)	> 100 µM (inactive)	> 100 µM (inactive)	54.5 µM (inactive)	> 100 µM (inactive)	> 100 µM (inactive)	> 100 µM (inactive)	> 100 µM (inactive)	61.9 µM (inactive)	> 100 µM (inactive)	> 100 µM (inactive)	> 100 µM (inactive)		71.1 µM (inactive)	> 100 µM (inactive)	35.3 µM
CCN1C[C@]2(C)CC[C@H](O)C34C1C(C[C@@H]32)[C@@]1(O)CC[C@H]2C[C@@H]4[C@@H]1[C@H]2O	> 100 µM (inactive)	> 100 µM (inactive)		> 100 µM (inactive)	> 100 µM (inactive)	> 100 µM (inactive)		> 100 µM (inactive)	> 100 µM (inactive)	> 100 µM (inactive)	> 100 µM (inactive)	> 100 µM (inactive)	> 100 µM (inactive)	> 100 µM (inactive)	> 100 µM (inactive)		> 100 µM (inactive)	> 100 µM
CCOC(=O)c1c(N)sc2c1C(C(=O)OCC)CCCC2 (centres undefined)	75.2 µM (inactive)	57.9 µM (inactive)	20.2 µM (inactive)	> 100 µM (inactive)	> 100 µM (inactive)		> 100 µM (inactive)		> 100 µM (inactive)	> 100 µM (inactive)	> 100 µM (inactive)	> 100 µM (inactive)	88.9 µM (inactive)	> 100 µM (inactive)	66.5 µM (inactive)	52.8 µM (inactive)	35.2 µM (inactive)	67.3 µM
COc1cc2c(cc1OC)C(Cc1cc(Br)c(OC)c(OC)c1)=[N+](C)CC2	19.2 µM (inactive)	11.1 µM (inactive)		> 100 µM (inactive)	94.4 µM (inactive)	92.5 µM (inactive)	31.6 µM (inactive)	> 100 µM (inactive)	45.1 µM (inactive)	59.6 µM (inactive)	33.2 µM (inactive)	43.4 µM (inactive)	34.8 µM (inactive)	69.8 µM (inactive)	8.17 µM (inactive)	18.8 µM (inactive)	58.1 µM (inactive)	> 100 µM
CC(O)C(C(=O)O)N(CC1(O)OCC(O)C(O)C1O)N=O (centres undefined)		> 100 µM (inactive)	> 100 µM (inactive)	> 100 µM (inactive)	> 100 µM (inactive)	> 100 µM (inactive)		> 100 µM (inactive)	> 100 µM (inactive)	> 100 µM (inactive)	> 100 µM (inactive)	> 100 µM (inactive)	> 100 µM (inactive)	> 100 µM (inactive)	> 100 µM (inactive)	> 100 µM (inactive)	> 100 µM (inactive)	
Brc1ccccc1C1SCc2nc3ccccc3n21 (centres undefined)	6.34 µM (inactive)			> 10 µM (inactive)	21.7 µM (inactive)	21 µM (inactive)	17.1 µM (inactive)	20.7 µM (inactive)	10.2 µM (inactive)	20 µM (inactive)	23.5 µM (inactive)	19 µM (inactive)	26.1 µM (inactive)	17.2 µM (inactive)	15.7 µM (inactive)	7.01 µM (inactive)	17.4 µM (inactive)	9.84 µM
O=c1[nH]c(-c2ccccc2)nc2ccc(Cl)cc12		42.4 µM (inactive)		23.4 µM (inactive)			> 100 µM (inactive)		> 100 µM (inactive)	35.2 µM (inactive)	36.8 µM (inactive)		> 100 µM (inactive)		> 100 µM (inactive)	26.9 µM (inactive)		35.7 µM
C#CCNC(=O)N(CC#C)N=O	> 100 µM (inactive)	> 100 µM (inactive)	> 100 µM (inactive)	> 100 µM (inactive)	> 100 µM (inactive)	37.9 µM (inactive)	> 100 µM (inactive)	> 100 µM (inactive)	> 100 µM (inactive)	> 100 µM (inactive)	> 100 µM (inactive)	> 100 µM (inactive)		> 100 µM (inactive)	> 100 µM (inactive)	24.8 µM (inactive)	> 100 µM (inactive)	> 100 µM
